Test results: ChEMBL document CHEMBL1201862, “PubChem BioAssay data set” (2004)
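48-hour exposure; five concentrations; linearly interpolated endpoints. The concentration for 50% growth inhibition is given as GI50.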 Activity calls are given as the source filed them. Cut-off read from the data, not from the text of the source: active = GI50 up to about 1.1 µM and inactive = higher.

What was measured:
Assay in all cases: DTP human tumour cell line panel, 48 h
[1] = tested on: CAKI-1
[2] = tested on: CCRF-CEM
[3] = tested on: COLO 205
[4] = tested on: HCT-116
[5] = tested on: Hs-578T
[6] = tested on: IGROV-1
[7] = tested on: MCF7
[8] = tested on: MOLT-4
[9] = tested on: NCI-H460
[10] = tested on: NCI-H522
[11] = tested on: PC-3
[12] = tested on: RXF 393
[13] = tested on: SF-295
[14] = tested on: SK-MEL-5
[15] = tested on: SNB-19
[16] = tested on: T47D
[17] = tested on: TK-10
[18] = tested on: UACC-62
[19] = tested on: UO-31

SMILES	GI50 [1]	GI50 [2]	GI50 [3]	GI50 [4]	GI50 [5]	GI50 [6]	GI50 [7]	GI50 [8]	GI50 [9]	GI50 [10]	GI50 [11]	GI50 [12]	GI50 [13]	GI50 [14]	GI50 [15]	GI50 [16]	GI50 [17]	GI50 [18]	GI50 [19]
O=C1c2cc([N+](=O)[O-])sc2C(=O)c2ccsc21	1.24 µM (inactive)	0.075 µM (active)	0.525 µM (active)	0.293 µM (active)	0.618 µM (active)	0.413 µM (active)	0.213 µM (active)	0.215 µM (active)	0.306 µM (active)	0.195 µM (active)	0.532 µM (active)	0.486 µM (active)	0.354 µM (active)	0.17 µM (active)	1.89 µM (inactive)	0.478 µM (active)	0.774 µM (active)	0.204 µM (active)	1.2 µM (inactive)
COC(=O)[C@@H]1OC(C)(c2ccccc2)O[C@H]1C(=O)OC	> 100 µM (inactive)	48.1 µM (inactive)	> 100 µM (inactive)		> 100 µM (inactive)	> 100 µM (inactive)	> 100 µM (inactive)	> 100 µM (inactive)	> 100 µM (inactive)	> 100 µM (inactive)	> 100 µM (inactive)	> 100 µM (inactive)	> 100 µM (inactive)	> 100 µM (inactive)	> 100 µM (inactive)	> 100 µM (inactive)	> 100 µM (inactive)	> 100 µM (inactive)	> 100 µM (inactive)
Oc1c(Cl)c(Cl)c(O)c(-c2cnc(-c3ncc(-c4c(O)c(Cl)c(Cl)c(O)c4Cl)s3)s2)c1Cl	20.9 µM (inactive)	8.53 µM (inactive)	28.6 µM (inactive)	21.1 µM (inactive)	15.2 µM (inactive)	16.1 µM (inactive)	18.2 µM (inactive)	> 100 µM (inactive)	30.1 µM (inactive)	2.1 µM (inactive)	29.4 µM (inactive)	18.9 µM (inactive)	19.9 µM (inactive)	7.8 µM (inactive)	27.9 µM (inactive)	29.9 µM (inactive)	26.7 µM (inactive)	19.7 µM (inactive)	21.1 µM (inactive)
CC(C)(C)OC(=O)NCC(c1c[nH]c2ccccc12)c1c[nH]c2ccccc12	14.5 µM (inactive)	14.6 µM (inactive)	14.6 µM (inactive)	16 µM (inactive)	24.1 µM (inactive)	12.3 µM (inactive)	67.5 µM (inactive)	11.7 µM (inactive)	14.9 µM (inactive)	18.2 µM (inactive)	15.8 µM (inactive)	4.56 µM (inactive)	15.6 µM (inactive)	13 µM (inactive)	16.9 µM (inactive)	17 µM (inactive)	15.5 µM (inactive)	> 100 µM (inactive)	14.1 µM (inactive)
CSC(=S)N/N=C/c1ccccc1	24.5 µM (inactive)	26 µM (inactive)	31.5 µM (inactive)	29.6 µM (inactive)	> 100 µM (inactive)	22.3 µM (inactive)	33.6 µM (inactive)		43.7 µM (inactive)	52.6 µM (inactive)	97.9 µM (inactive)	28.8 µM (inactive)	39.2 µM (inactive)	22.5 µM (inactive)	53.7 µM (inactive)	16.3 µM (inactive)	> 100 µM (inactive)	37.4 µM (inactive)	34.7 µM (inactive)
CC(C)(C)[Si](C)(C)OCC1OC(n2cnc3c(=O)[nH]cnc32)CC1O (stereo not given)	> 100 µM (inactive)	> 100 µM (inactive)	> 100 µM (inactive)	> 100 µM (inactive)	> 100 µM (inactive)	> 100 µM (inactive)	> 100 µM (inactive)	> 100 µM (inactive)	> 100 µM (inactive)	> 100 µM (inactive)	> 100 µM (inactive)	> 100 µM (inactive)	> 100 µM (inactive)	60.5 µM (inactive)	> 100 µM (inactive)	> 100 µM (inactive)	> 100 µM (inactive)	> 100 µM (inactive)	> 100 µM (inactive)
CCOC(=O)C12CC(C)=C(C)CC1CCCc1ccccc12 (stereo not given)	31.1 µM (inactive)	18.4 µM (inactive)	16.6 µM (inactive)	14.7 µM (inactive)	36.1 µM (inactive)	26.4 µM (inactive)	17 µM (inactive)	18 µM (inactive)	16.4 µM (inactive)	17.6 µM (inactive)	18.1 µM (inactive)	18.7 µM (inactive)	25.1 µM (inactive)	21.5 µM (inactive)	29.6 µM (inactive)	15 µM (inactive)	27 µM (inactive)	21.9 µM (inactive)	47 µM (inactive)
Nc1c(-c2cccc3ccccc23)c2ccc([N+](=O)[O-])cc2c(=O)n1-c1nc2ccccc2s1	5.15 µM (inactive)	1.33 µM (inactive)	18.1 µM (inactive)	5.13 µM (inactive)	2.98 µM (inactive)	3.41 µM (inactive)	1.5 µM (inactive)	3.03 µM (inactive)	3.1 µM (inactive)	2.22 µM (inactive)	4.84 µM (inactive)	6.04 µM (inactive)	5.53 µM (inactive)	6.73 µM (inactive)	8.07 µM (inactive)	3.37 µM (inactive)	4.42 µM (inactive)	5.6 µM (inactive)	4.1 µM (inactive)
COC(=O)C(CCC1CC(OC)N(C(=O)OCc2ccccc2)C1)/N=C/c1ccccc1 (stereo not given)	> 100 µM (inactive)	41.9 µM (inactive)	29.3 µM (inactive)	55.3 µM (inactive)	> 100 µM (inactive)	87.9 µM (inactive)	60 µM (inactive)	30.1 µM (inactive)	78.3 µM (inactive)	30.6 µM (inactive)	45.1 µM (inactive)	> 100 µM (inactive)	> 100 µM (inactive)	29.2 µM (inactive)	> 100 µM (inactive)	40.5 µM (inactive)	98.6 µM (inactive)	84.1 µM (inactive)	91.6 µM (inactive)
O=c1[nH]c2ccc(C(F)(F)F)cc2nc1-c1ccccc1	> 100 µM (inactive)	> 100 µM (inactive)	> 100 µM (inactive)	> 100 µM (inactive)	59.6 µM (inactive)	> 100 µM (inactive)	> 100 µM (inactive)	> 100 µM (inactive)	> 100 µM (inactive)	> 100 µM (inactive)	> 100 µM (inactive)	> 100 µM (inactive)	> 100 µM (inactive)	> 100 µM (inactive)	> 100 µM (inactive)	> 100 µM (inactive)	> 100 µM (inactive)	> 100 µM (inactive)	
N=C(N)C1CN(CCCCCCCCCCN2CC(C(=N)N)C(O)=NC2=O)C(=O)N=C1O (stereo not given)	> 10 µM (inactive)	> 10 µM (inactive)	> 10 µM (inactive)	> 10 µM (inactive)	> 10 µM (inactive)	> 10 µM (inactive)	> 10 µM (inactive)	> 10 µM (inactive)	> 10 µM (inactive)	> 10 µM (inactive)	> 10 µM (inactive)	> 10 µM (inactive)	> 10 µM (inactive)	> 10 µM (inactive)	> 10 µM (inactive)	> 10 µM (inactive)	> 10 µM (inactive)	> 10 µM (inactive)	
